Measurements from publication PMC9764201, “Half-calcified calmodulin promotes basal activity and inactivation of the L-type calcium channel CaV1.2” (The Journal of Biological Chemistry, 2022).

Key:
CaV1.2 [1] = test: Cell-attached single-channel recording of CaV1.2 variants in HEK 293T/17 cells; format: cell-based, rat; conditions: 110 mM Ba2+, 0 mV from -80 mV; n=8; mean±SEM (Table S2)
Description: (§1) HEK 293T/17 cells (ATCC) were maintained as previously described ([15], [53]). For electrophysiology, Lipofectamine 2000 (Invitrogene) or JetPrime (Polyplus Transfection) was used to transiently transfect cells with indicated plasmid DNAs in 35 mm dishes. For biochemistry experiments, transient transfection of HEK 293T/17 cells in […] dishes was achieved using either JetPrime or, as previously described ([15], [53]), the calcium phosphate method. Cells were cotransfected with plasmids encoding the pore-forming α11.2 subunit N-terminally tagged with eCFP ([15], [53]) or mCherry ([54]) plus pGWIH-based plasmids encoding the auxiliary subunits rat β2A ([55]) and rabbit α2δ-1 ([56]) as previously described ([15], [53]). For all transfections, equimolar ratio of 1:1:1 was used for CaV1.2 channel subunits and later further optimized (JetPrime) for CaM (at ratio of 1:1:1:0.5 for α11.2:β2A:α2δ−1:CaM). Rat brain α11.2 (GenBank ID: M67515.1) N-terminally fused to eCFP was utilized as previously described ([15]). The point mutations in plasmids encoding single-residue I1654A, Y1657D (this report), and K1662E exchanges in α11.2 were generated via QuikChange II as previously described ([15], [53]) using N-terminally eCFP ([15], [53]) or mCherry tagged ([54]) rat brain α11.2 plasmid template DNAs. We studied CDI using mCherry-tagged α11.2 subunit coexpressed with the other, untagged CaV1.2 subunits and WT CaM or the calmodulin 34 mutant CaM34 (kindly provided by JP Adelman, ([8])). For some biochemical experiments shown in Fig. S2, YFP-tagged CaM was used ([32]).
(§2) Single-channel recordings were performed as described previously ([15], [31]). In brief, low noise raw data were recorded with an Axopatch 200B amplifier and data were sampled at 10 kHz with a low-pass filter at 2 kHz (3 dB, four pole Bessel) and digitalized with a Digidata 1440 digitizer. Recording electrodes were pulled from borosilicate capillary glass ([…]) with a Flaming/Brown micropipette puller (Model P-97, Sutter Instruments), heat polished, and coated with Sylgard (Sylgard 289) until close to the electrode tip. Electrode resistance in solution was usually 5 to 10 MΩ. To keep the membrane potential close to 0 mV the extracellular bath solution contained (in mM) 120 K-Glutamate, 25 KCl, 2 MgCl2, 1 CaCl2, 10 EGTA, 10 Hepes, and 2 Na2-ATP pH 7.4 (KOH). The intracellular pipette solution contained (in mM) 110 BaCl2 and 10 Hepes, adjusted to pH 7.4 (TEA-OH). Cells were depolarized for 2 s from a holding potential of -80 mV to 0 mV every 7 s. Event lists were created from raw Ba^2+ currents after leak and capacity transients were digitally subtracted by pClamp 10. Unitary current events were then analyzed based on the half-height criterium ([57]) using the single-channel software provided by pClamp 10.
(§3) For statistical analysis, single-channel parameters were corrected by the channel number (k), respectively, the maximum of simultaneously open channels (PMAX). The number of channels in the patch was estimated based on the observed simultaneous openings and is a precise parameter for k < 4, as included in this article and originally described by R. Horn ([58]). On average, 100 to 200 Ba^2+ current traces were recorded for each cell for each experimental condition for an appropriate statistical analysis.
Table S2. Biophysical properties of WT and Y1657D mutant CaV1.2 as determined by single channel recordings with 110 mM Ba2+. HEK 293T/17 cells were transiently transfected with eCFP-tagged rat CaV1.2 (WT versus Y1657D) plus α2δ1 and β2a. Single-channel parameter were corrected for the number of channels (k) in the patch. Availability denotes the number of active over […] traces. Popen (Po) is the open probability within active traces. Ipeak is the current flown through all channels in a patch at the time point of the current maximum and was corrected by the number of channels. Mean ensemble average (MEA) is the mean average current of all traces after being superimposed. […]

CaV1.2 [2] = test: Cell-attached single-channel recording of CaV1.2 with ectopic CaM in HEK 293T/17 cells; format: cell-based, rat; conditions: 110 mM Ba2+, 0 mV from -80 mV; mean±SEM (Table S3)
Description: as §1, §2, §3
Table S3. Effects of ectopically expressed CaM and CaM34 on CaV1.2 as determined by single channel recordings with 110 mM Ba2+. HEK 293T/17 cells were transiently transfected with eCFP-tagged rat CaV1.2, α2δ1 and β2a alone or together with WT CaM (+CaM) or CaM34 (+CaM34). Parameters were corrected for the number of channels (k) in the patch. Recordings were obtained at a test potential of 0 mV from a holding potential of -80 mV. For all parameters, statistical significance p was determined for CaV1.2 without ectopic CaM expression and for CaV1.2 plus CaM34 agains CaV1.2 plus wt CaM (one-way ANOVA followed by Bonferroni test). […]

“CaV1.2: WT rat brain α11.2 with α2δ1 and β2A expressed in HEK 293T/17 cells” was tested, and the Availability (CaV1.2 [1]) was 65±12%, the IPeak (CaV1.2 [1]) was 21.2±5.3 fA and the “MEA (mean ensemble average)” value (CaV1.2 [1]) was 8.5±2.4 fA. The “MOT (mean open time)” value (CaV1.2 [1]) was 1.4 ± 0.2 ms, the Po (CaV1.2 [1]) was 2.0±0.5% and the unitary i (CaV1.2 [1]) was 0.7±0.04 pA. For the same substance, the Availability (CaV1.2 [2]) was 77±7%, the IPeak (CaV1.2 [2]) was 19.7±4.0 fA and the “MEA (mean ensemble average)” value (CaV1.2 [2]) was 9.6±2.4 fA. For the same substance, the “MOT (mean open time)” value (CaV1.2 [2]) was 1.2 ± 0.2 ms, the Po (CaV1.2 [2]) was 2.3±0.6% and the unitary i (CaV1.2 [2]) was 0.81±0.03 pA.
